{"source": "paper PMC4780272", "about": "“New Concept of the Biosynthesis of 4-Alkyl-L-Proline Precursors of Lincomycin, Hormaomycin, and Pyrrolobenzodiazepines: Could a γ-Glutamyltransferase Cleave the C–C Bond?” (Frontiers in Microbiology, 2016)", "molecular_target": "T1, LmbW (Streptomyces lincolnensis, UniProt A9Y8T3)", "T1 construct": "gene SLINC_0255; lmbW amplified from LK6 cosmid, cloned in pET42b(+), produced in E. coli BL21(DE3), purified as described for LmbC", "T1 sequence (A9Y8T3 1-350)": "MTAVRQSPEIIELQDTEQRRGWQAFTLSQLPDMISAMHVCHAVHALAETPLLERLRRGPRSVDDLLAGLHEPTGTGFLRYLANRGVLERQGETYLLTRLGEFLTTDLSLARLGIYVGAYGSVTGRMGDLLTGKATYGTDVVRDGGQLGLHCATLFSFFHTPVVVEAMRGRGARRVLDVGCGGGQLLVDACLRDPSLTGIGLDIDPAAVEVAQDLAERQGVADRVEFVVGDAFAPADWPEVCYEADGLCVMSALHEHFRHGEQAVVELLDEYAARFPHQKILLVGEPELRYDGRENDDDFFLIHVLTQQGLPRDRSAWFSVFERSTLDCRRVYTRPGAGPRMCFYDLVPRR", "assay": "LC-MS of methylated product", "type": "biochemical", "settings": "methyl donor; co-substrate 3 4 mM, S-adenosylmethionine 4 mM, glycine buffer 40 mM pH 9.5, 28°C, 1 h"}
{"smiles": "C[S+](CC[C@H](N)C(=O)O)C[C@H]1O[C@@H](n2cnc3c(N)ncnc32)[C@H](O)[C@@H]1O", "note": "(stereo partly shown) [S-adenosylmethionine]", "values": [{"measurement": "LC-MS of methylated product", "value": "In the reaction with LmbW and S-adenosylmethionine, we identified a product"}]}
